US11230570B2, “Peptide for regulating reactivity to serotonin reuptake inhibitor based antidepressant, and use thereof” (DAEGU GYEONGBUK INSTITUTE OF SCIENCE AND TECHNOLOGY, priority 2018, dated 2022)
Counter-ions that a name gives are not always drawn. No end group written: not given here.

Key:
[1] = test system: mossy cells; assay: Electrophysiological recording of hippocampal mossy cells in brain slices; format: cell-based, mouse; settings: for activity of mossy cells: CNO perfused on slices
Excerpt: Electrophysiological Evaluation of Hippocampal Mossy Cells […] To label and visualize mossy cells in hippocampal slices, a recombinant AAV vector (AAV2.EF1α.DIO.AcGFP1-myc) was bilaterally injected into the dentate hilus of the ventral hippocampus in […]. AcGFP1 was selectively expressed in the mossy cells. While recording the electrophysiological evaluation, the morphology, membrane capacitance and electrophysiological properties of the mossy cells were further confirmed. (2) Preparation of Slices 12-15-week male mice were euthanized with CO2. Subsequently, their brains were extracted and placed in an N-Methyl-D-glucamine-containing cutting solution (93 mM NMDG, 2.5 mM KCl, 1.2 mM NaH2PO4, 30 mM NaHCO3, 25 mM glucose, 20 mM HEPES, 5 mM sodium ascorbate, 3 mM sodium pyruvate, 2 mM thiourea, 0.5 mM CaCl2), 10 mM MgSO4. pH 7.4, 295-305 mM mOsm) on cold ice. The brain tissue slices (400-μm thickness) containing the ventral hippocampus were prepared using a VT1000 S Vibratome (Leica Microsystems Inc., Buffalo Grove, Ill., USA). After cutting, slices were allowed to recover in the cutting solution at 37° C. for 15 minutes, and then transferred to a recording solution at room temperature for at least 1 hour before recording of the electrophysiological evaluation. (3) Electrophysiological Recording Electrophysiological recordings were performed as described above. During recording, brain slices were placed in a perfusion chamber attached to a fixed stage of an upright microscope BX51WI (Olympus, Tokyo, Japan), and immersed in a continuously flowing oxygenated recording solution. Components contained in the solution are as follows: 125 mM NaCl, 25 mM NaHCO3, 25 mM glucose, 2.5 mM KCl, 1.25 mM NaH2PO4, 2 mM CaCl2) and 1 mM MgCl2, pH 7.4, 295-305 mM mOsm. Neurons were visualized with a 40× water immersion lens using near infrared (IR) light. Electrophysiological recording was performed using a Multiclamp 700B/Digidata 1440A system (Molecular Devices, Sunnyvale, Calif., USA). Patch electrodes were filled with an internal solution (126 mM K-gluconate, 10 mM KCl, 10 mM HEPES, 10 mM phosphocreatine, 4 mM ATP and 0.3 mM GTP, pH 7.3, 290 mM mOsmol). Whole-cell patch-clamp recordings were used to record spontaneous action potentials of mossy cells in the hippocampal slides, and all recording was performed at 37° C. […] In addition, CNO (1 mM) was perfused on the brain tissue slices to confirm the effect of Gi-DREADD. Experimental data was analyzed by pClamp10 software (Molecular Devices) and GraphPad Prism 6 (GraphPad Software, La Jolla, Calif., USA).

[2] = test system: mice; assay: Novelty suppressed feeding test (NSF/NFS); format: in vivo, mouse; settings: in s (unit assumed); for NSF test latency: CNO 0.3 mg/kg
Description: For chronic drug administration, 2 to 5 mice were housed in each cage. Fluoxetine hydrochloride (Spectrum Chemicals, USA) was intraperitoneally injected (10 mg kg-1 day-1) daily for 3 weeks. The drug was prepared by being dissolved in dimethyl sulfoxide (50%), and diluted with saline. For a control, a drug-free vehicle solution (0.9% saline) was administered daily. For a Gi-DREADD mouse experiment, clozapine-N-oxide (CNO; Sigma-Aldrich, USA) was directly dissolved in a 0.9% saline solution. A dose of CNO was 0.3 mg/kg, and 2 hours before each behavioral test, 100 μl/10 g of a solution per body weight was intraperitoneally injected.
(4) Novelty Suppressed Feeding Test (NSF)
(§1) The test was carried out for 15 minutes by partially changing a conventional method. 24 hours before behavioral testing, all food provided to the home cage was removed. […], a single 1.8-cm square-shaped food pellet was placed on a white filter paper positioned in the center of the test box. The mouse was placed in the corner of an open field, and a stopwatch was immediately operated. The latency to first bite food was recorded. Immediately after the test, the mice were placed in the home cage, and the amount of food intake was measured for 10 minutes.

[3] = test system: mice; assay: Home cage feeding (HCF) test; format: in vivo, mouse; settings: for home cage feeding level: control AcGFP1 and PASIP-AcGFP1 mice, chronic fluoxetine
Description: as §1

[4] = test system: BrdU+ proliferating cells in the subgranular zone of the dentate gyrus; assay: BrdU labeling and neurogenic analysis; format: in vivo, mouse
Description: 1-8. BrdU Labeling and Neurogenic Analysis
Before the mice were sacrificed, a BrdU solution (200 mg/kg) was intraperitoneally administered for 3 hours. After transcardial perfusion, brain tissue was fixed with 4% PFA overnight, coronal sections with a 40-μm thickness were collected along the hippocampal rostro-caudal axis using a cryostat (CM3050S, Leica). The sections were processed using a free-floating method. Every sixth section throughout the hippocampus was subjected to BrdU immunohistochemical staining. Afterward, sections were pre-incubated with 1M HCl at 45° C. for 30 minutes to denature DNA, and washed three times with 0.1M PBS for neutralization. Immunohistochemistry was performed with α-BrdU (rat polyclonal, 1:200, Abcam, Cambridge, Mass., USA) and Alexa-Fluor™-conjugated secondary antibodies (1:400, Life Technologies, USA). A tester who was not given information on a slide code counted BrdU-labeled cells in the granule cell layer (GCL) and the subgranular zone (SGZ) of the dentate gyrus (DG) in the total of 12 sections derived from individual mice. The total number of BrdU-labeled cells per section was determined and multiplied by 6 to obtain the total number of cells per dentate gyrus.

[5] = test system: mice; assay: Tail suspension test (TST); format: in vivo, mouse; settings: for inactivity (immobility) in TST: in s (unit assumed)
Description: (5) Tail Suspension Test (TST) Mice were suspended by tails for 6 minutes. A test session was videotaped, and their immobility was scored using automated TST analysis software of Clever System (Reston, Va., USA). The immobility time during the last 4 minutes (excluding the initial 2 minutes) was calculated.

[6] = test system: newborn postmitotic cells (DCX); assay: Doublecortin (DCX) immunostaining of immature neurons; format: in vivo, mouse; settings: chronic fluoxetine administration, control mice
Description: 1-7. Immunohistochemistry
Immunostaining was carried out using the standard free-floating method. Sections were washed three times with PBS for 10 minutes each time, and incubated with 2% normal donkey serum, 0.2% bovine serum albumin and 0.3% Triton-X100. After blocking, the sections were incubated with primary antibodies diluted with a blocking buffer overnight at 4° C., the following primary antibodies were used: α-doublecortin (goat polyclonal, 1:200, Santa Cruz Biotech.), α-calretinin (mouse monoclonal, 1:500, SWANT), α-parvalbumin (rabbit polyclonal, 1:1000, SWANT), α-neuropeptide Y (rabbit polyclonal, 1:1000, Phoenix Pharmaceutical), α-GluR2/3 (rabbit polyclonal, 1:100, Millipore). After incubation for 24 hours, the sections were washed three times with PBS containing 0.2% Triton-X100 (PBS-T) for 10 minutes, and then incubated with Alexa-Fluor™-conjugated secondary antibodies (1:400, Life Technologies, USA) at room temperature for 3 hours. The sections were washed three times with PBS-T at room temperature for 10 minutes, and covered with a Prolong™ Gold, anti-fading mounting medium (Life Technologies, USA).

[7] = biological target: T1, p11/AnxA2/SMARCA3 complex (Homo sapiens, UniProt P07355+P60903); assay: Immunoprecipitation of p11/AnxA2/SMARCA3 complex in HEK293 cells; format: binding; settings: in vitro immunoprecipitation with α-SMARCA3, HEK293 cells
T1 construct: endogenous in cells; host or cells: HEK293 (CRL-1573, ATCC)
Description: 1-4. Immunoprecipitation of p11/AnxA2/SMARCA3 Complex
HEK293 cells (CRL-1573, ATCC) were transfected with a CMV-Cre plasmid, and 24 hours after transfection, transfected with an AAV vector expressing the control AcGFP1 or PASIP-AcGFP1 construct. Immunoprecipitation was performed with α-SMARCA3 antibodies (rabbit polyclonal antibodies prepared with immunized peptides). Immunoblotting was performed using the following antibodies according to a standard protocol: α-p11 (mouse monoclonal, 1:1000, BD Biosciences), α-p11 (goat polyclonal, 1:200, R&D Systems), α-SMARCA3 (goat polyclonal, 1:200, NOVUS), α-AnxA2 (mouse monoclonal, Santa Cruz Biotech.), α-GFP (goat polyclonal, Santa Cruz Biotech).

[8] = test system: mice; assay: Light and dark box test; format: in vivo, mouse; settings: PASIP-AcGFP1 mice vs control AcGFP1 154±16; p<0.01
Description: (3) Light and Dark Box Test (LD Box)
Mice were placed in an open field area (40×40×40 cm). A black box was inserted into the open field. The mice were placed into light compartments at the beginning of a session, and allowed to freely move between the compartments for 10 minutes. The time spent in each compartment and the latency to first enter the dark compartment were measured using automated Superflex™ software.

T1 sequence (P60903 whole entry): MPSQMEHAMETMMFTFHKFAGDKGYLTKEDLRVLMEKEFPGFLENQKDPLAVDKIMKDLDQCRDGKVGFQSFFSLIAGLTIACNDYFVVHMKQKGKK
T1 sequence (P07355 2-339 limits assumed): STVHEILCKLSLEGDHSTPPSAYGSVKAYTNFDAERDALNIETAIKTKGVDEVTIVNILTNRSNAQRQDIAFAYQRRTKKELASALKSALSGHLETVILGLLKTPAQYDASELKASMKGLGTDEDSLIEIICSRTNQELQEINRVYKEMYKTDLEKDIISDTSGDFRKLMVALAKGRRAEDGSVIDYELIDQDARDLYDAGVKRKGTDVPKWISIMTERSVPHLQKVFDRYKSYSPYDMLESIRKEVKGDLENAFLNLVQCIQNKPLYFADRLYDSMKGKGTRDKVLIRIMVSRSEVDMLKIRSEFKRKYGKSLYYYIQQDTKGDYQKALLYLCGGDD

C[N+]1([O-])CCN(C2=Nc3cc(Cl)ccc3Nc3ccccc32)CC1 [CNO, clozapine-N-oxide]
activity of mossy cells ([1]; Gi-DREADD mice, mCherry-labeled mossy cells): silenced
activity of mossy cells ([1]; control mCherry mice): not in control mice

CNCCC(Oc1ccc(C(F)(F)F)cc1)c1ccccc1 (stereo not shown) [FLX, Fluoxetine hydrochloride]
NSF test latency ([2]; Gi-DREADD mice, chronic FLX (SAL 450±36)): 365±40
latency to access a food pellet ([2]; Smarca3f/f control mice (D2-Cre experiment), chronic FLX (SAL 257±47)): 104±12
latency to access a food pellet ([2]; Smarca3f/f control mice (MC-Cre experiment), chronic FLX (SAL 338±20)): 229±40
latency to access a food pellet ([2]; Smarca3f/f;D2-Cre conditional knockout mice, chronic FLX (SAL 192±15)): 232±32
latency to access a food pellet ([2]; Smarca3f/f;MC-Cre conditional knockout mice, chronic FLX (SAL 405±88)): 404±69
NSF test latency ([2]; control (mCherry) mice, chronic FLX (SAL 484±85)): 238±40
latency to feed ([2]; control AcGFP1 mice, chronic fluoxetine (SAL 296±48)): 147±22
latency to access a food pellet ([2]; p11f/f control mice, chronic FLX 10 mg/kg/day i.p. 3 weeks (SAL 351±38)): 165±24
latency to access a food pellet ([2]; p11f/f;D2-Cre conditional knockout mice, chronic FLX (SAL 364±46)): 296±58
home cage feeding level [3]: did not have a significant influence
food intake after coming back to the home cage ([3]; control and p11 / Smarca3 cKO mice, chronic SSRI): no change in food intake
number of BrdU+ proliferating cells in the subgranular zone ([4]; Gi-DREADD mice, chronic FLX (SAL 172±27)): 232±20
number of BrdU+ proliferating cells in the subgranular zone ([4]; control (mCherry) D2-Cre mice, chronic FLX (SAL 177±18)): 337±37
BrdU+ proliferating cells ([4]; control mice, chronic fluoxetine (SAL 173±16)): 290±43
inactivity (immobility) in TST ([5]; Gi-DREADD mice, chronic FLX (SAL 128±9)): 129±10
inactivity (immobility) in TST ([5]; control (mCherry) mice, chronic FLX (SAL 141±9)): 110±9
mossy cell activity (spontaneous firing rate) ([1]; acute fluoxetine treatment): had no effect on mossy cell activity
spontaneous firing rate of mossy cells ([1]; chronic fluoxetine treatment (control 2.36±0.41 Hz)): 4.19±0.92 Hz
survival and differentiation of newborn neuronal progenitors (DCX expression) [6]: enhanced the survival of newborn neuronal progenitors and promoted differentiation into mature neurons

PASIP-AcGFP1: p11/AnxA2/SMARCA3 complex inhibitory peptide-AcGFP1 fusion construct, expressed from a Cre-dependent AAV vector (GNGNGKVTFPKMKIPKFSGR; also: fused to AcGFP1)
latency to feed ([2]; PASIP-AcGFP1 mice, SAL): 304±51
latency to feed ([2]; PASIP-AcGFP1 mice, chronic FLX): 293±54
home cage feeding level [3]: did not have a significant influence
assembly of the p11/AnxA2/SMARCA3 complex [7]: able to block the assembly of the p11/AnxA2/SMARCA3 complex
BrdU+ proliferating cells ([4]; PASIP-AcGFP1 mice (AAV, mossy cells), SAL): 119±27
BrdU+ proliferating cells ([4]; PASIP-AcGFP1 mice (AAV, mossy cells), chronic FLX): 129±13
light/dark box test [8]: 94±13
effect of fluoxetine in tail-suspension test ([5]; PASIP-AcGFP1 mice, chronic fluoxetine): reduced an effect caused by fluoxetine administration
firing rate of mossy cells ([1]; mossy cells expressing construct (control AcGFP1 3.58±0.56 Hz)): 0.64±0.10 Hz
resting membrane potential in mossy cells ([1]; mossy cells expressing construct (control AcGFP1 −47.33±1.77 mV)): −54.33±1.32 mV
